Test results reported in patent US7118731B2, “Drugs for the diagnosis of tissue reproductive activity or the treatment of proliferative diseases” (priority 2002, dated 2006).
Like-named read-outs stand apart in the source and are kept apart here. Marks after values point to notes of the source that are not given here.

How the values were obtained:
L-M (TK-) cells = assay: incorporation of labeled compounds into thymidine kinase-deficient L-M (TK-) cells; assay type: cell-based; conditions: 2 nmol labeled compound, one hour
Method: (§1) L-M and L-M (TK-) cells in the logarithmic growth phase were planted on 24-well plates, each carrying 2.0×10^5 cells, and cultured overnight. Then 2 nmol of a radioactive iodine-labeled nucleic acid derivative was added and allowed to be incorporated in the cells for one hour. The cells were washed three times with an ice-cooled phosphate buffer solution, and dissolved in 0.1N NaOH, followed by determination of degree of radioactivity incorporated in the cells using an automatic well-type gamma counter (ARC-380 or ARC-300, Aloka Co., Ltd.). Measurements were analyzed to make evaluations based on the amount of the incorporated label molecules per unit weight of cellular proteins. […] ITdU and [I-125] […] IUR as a control.

[1] = in vivo accumulation in proliferating tissues of normal mice; conditions: 185 MBq through tail vein, normal mice (C57BL/6), FIG. 10
Method: To evaluate the accumulation of each radioactive iodine-labeled nucleic acid derivative in proliferating tissues, tests were conducted to study in vivo distribution in normal mice. A 185 MBq of each labeled compound was injected in each of 10 week old normal mice (C57BL/6) through its tail vein, and three animals were sacrificed and anatomized at appropriate intervals. Incorporation of radioactivity in each tissue sample was measured with an automatic well-type gamma counter (ARC-300, Aloka Co., Ltd.). Incorporated radioactivity in tissue was calculated as the administrated dose per unit weight of the tissue, and represented in percentage (% ID/g).

[2] = molecular target: T1, E. coli-originating thymidine phospholylase (Escherichia coli, UniProt P07650); conditions: for relative activity (C—N glycosidic bond cleavage): relative to [I-125]IUR = 1.00; for 5-iodouridine production rate: 2 nmole labeled compound, 9 units enzyme, n = 3; for 5-iodouridine production rate / metabolic stability of glycosidic bond compared with [I-125] IUR: 25° C.; for metabolic stability of glycosidic bond compared with [I-125] IUR: thymidine phospholylase
T1 sequence (P07650 whole entry): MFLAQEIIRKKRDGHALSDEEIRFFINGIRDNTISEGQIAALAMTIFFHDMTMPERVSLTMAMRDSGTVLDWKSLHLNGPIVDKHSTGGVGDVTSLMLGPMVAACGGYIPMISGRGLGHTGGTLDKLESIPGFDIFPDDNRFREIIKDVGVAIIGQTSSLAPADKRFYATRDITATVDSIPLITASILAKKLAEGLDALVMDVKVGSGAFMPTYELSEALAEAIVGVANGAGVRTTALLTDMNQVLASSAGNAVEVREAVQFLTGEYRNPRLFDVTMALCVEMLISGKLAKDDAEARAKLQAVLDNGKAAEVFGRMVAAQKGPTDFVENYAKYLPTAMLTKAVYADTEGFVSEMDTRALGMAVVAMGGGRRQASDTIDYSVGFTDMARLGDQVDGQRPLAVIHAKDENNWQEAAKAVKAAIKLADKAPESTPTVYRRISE
Method: To the reaction liquid, 2 nmole of the labeled compound and 9 units of a liquid enzyme (Sigma Corporation) were added and reacted at 25° C. for a fixed period of time, and the reaction was stopped by treatment in a boiling water bath for 3 minutes. The reaction liquid was subjected to centrifugal separation, and the supernatant was applied over a thin layer silica gel plate along with an authentic standard (5-iodouridine: IU) and a non-labeled parent compound. It was developed with a mixture of chloroform and isopropyl alcohol (3:1), and then autoradiography was measured with a bioimaging analyzer (BAS-1500, Fuji Photo Film Co., Ltd.). The area of interest was set to peak components of the Rf value corresponding to the authentic standard, and the amount of the resulting metabolite was calculated from its proportion in percentage.

L-M cells = assay: incorporation of labeled compounds into L-M cells; assay type: cell-based; conditions: for Incorporation, L-M: 2 nmol labeled compound, one hour, L-M cells; for thymidine kinase-dependent incorporation into cells: L-M versus L-M (TK-) cells; for (L-M)/{L-M(TK-)}: ratio of incorporation, L-M to L-M (TK-), T-test
Method: as §1

[3] = molecular target: T1, E. coli-originating thymidine phospholylase; conditions: for Relative activity (C—N glycosidic linkage cleavage): relative to [I-125]IUR = 1.00; for 5-IU production rate: 0.5–12.0 nmol labeled compound, 0.0009–9.0 units enzyme, n = 3; for 5-IU production rate / metabolic stability of glycosidic bond compared with [I-125] IUR: 25° C.; for metabolic stability of glycosidic bond compared with [I-125] IUR: thymidine phospholylase
Method: To the reaction liquid, 0.5–12.0 nmol of the labeled compound and 0.0009–9.0 units of a liquid enzyme (Sigma Corporation) was added and reacted at 25° C. for a fixed period of time, followed by treatment in a boiling water bath for 3 minutes to stop the reaction. […] The reaction liquid was subjected to centrifugal separation, and the supernatant was applied over a silica gel plate along with an authentic standard (5-iodouridine: IU) and a non-labeled parent compound. It was developed with a mixture of chloroform and isopropyl alcohol (3:1), and then the autoradiogram was measured with a bioimaging analyzer (BAS-1500, Fuji Photo Film Co., Ltd.). The area of interest was set to peak components of the Rf value corresponding to the authentic standard, and the amount of the resulting metabolite was calculated from its proportion in percentage. […] FITAU and [I-125] IMBAU, a reversed phase silica gel plate was used, and after development with a mixture of methanol and water (3:7), an autoradiogram was measured with a bioimaging analyzer (BAS-1500; Fuji Photo Film Co., Ltd.) similarly to the [I-125] IUR and others.

[4] = literature; cited from earlier work
[5] = in vivo distribution of [I-125] ITDU in normal mice; conditions: 370 KBq into tail vein, FIG. 9
Method: A 370 KBq of [I-125] ITDU was injected in each of 10 week old normal mice into the tail vein, and three animals were sacrificed and anatomized at appropriate intervals. Incorporation of radioactivity in each tissue sample was measured with an automatic well-type gamma counter (ARC-300, Aloka Co., Ltd.). Incorporated radioactivity in tissue was calculated as the administrated dose per gram of the tissue, and represented in percentage, as shown in FIG. 9.

[6] = in vivo label stability, accumulation of free iodine in thyroid gland (Example 17); conditions: 185 KBq into tail vein, 10 week old normal mice (C57BL/6), longer intervals, FIG. 8
Method: To evaluate in vivo stability of deiodination against each radioactive iodine-labeled nucleic acid derivative, tests were conducted to study accumulation of free iodine in the thyroid gland of normal mice. A 185 KBq of each labeled compound was injected in each of 10 week old normal mice (C57BL/6) into the tail vein, and three animals were sacrificed and anatomized at intervals longer than in Example 16. Incorporation of radioactivity in the thyroid gland was measured with an automatic well-type gamma counter (ARC-300, Aloka Co., Ltd.). Incorporated radioactivity in tissue (% ID) was calculated as the administrated per gram of the tissue, and represented in percentage, as shown in FIG. 8.

thymidine kinase = assay: in vitro phosphorylation activity by thymidine kinase (crude enzyme from LL/2 cells); assay type: biochemical, mouse; conditions: for phosphorylation activity attributed to thymidine kinase: crude enzyme from LL/2 cells; for Phosphorylated material production rate: crude enzyme from LL/2 mouse lung cancer cells, 2 nmole labeled compound, ATP, 37° C., n = 3
Method: Liquid enzyme was extracted from a LL/2 mouse's lung cancer cell strain in the logarithmic growth phase according to the method of Wolcott R M and Colacino J M (Anal. Biochem 178, p.38–40 (1989)). To a reaction liquid containing ATP, which is a phosphate donor, 2 nmole of the label compound and the liquid enzyme were added and reacted at 37° C. for a fixed period of time. The reaction was stopped by adding 1 mL of a 100 mM lanthanum chloride/5 mM triethanolamine solution. Phosphorylated material was prepared by centrifugal separation to form a phosphate-metal complex, followed by measuring a radioactivity of the resulting precipitate with an automatic well-type gamma counter (ARC-380, Aloka Co., Ltd.). […] ITDU and [I-125] ITAU.

[7] = in vivo label stability, accumulation of free iodine in thyroid gland (Example 16); conditions: 370 KBq into tail vein, 10 week old normal mice, FIG. 7
Method: To evaluate in vivo label stability of [I-125] ITDU and [I-125] ITAU, tests were conducted to study the accumulation of free iodine in the thyroid gland in normal mice. […] For a control, in vivo distribution of [I-125] IUR was also observed. […] Incorporated radioactivity in tissue was calculated as the administrated dose per gram of the tissue per unit time, and represented in percentage, as shown in FIG. 7. […] ITDU and [I-125]

Walker tumor = assay: scintigraphy of Walker tumor; assay type: in vivo; conditions: 37 MBq into tail vein, four hours after administration, Walker tumor in Wistar rats, FIG. 11
Method: Malignant tumor, a typical proliferative disease, was observed by scintigraphy. Walker tumor cells were transplanted subcutaneously in the right inguinal region of Wistar rats. After the transplantation, 37 MBq of [I-123] ITDU was injected into the tail vein of rats that suffered a palpable tumor of about 20 mm that was suitable for scintigraphy. Each tumor-transplanted rat was anesthetized with Ravonal four hours after the administration of a drug. Then the rat was fixed in the face-up position and observed statically with gamma-camera imaging equipment (GCA-90B, Toshiba Corporation). Imaging was performed using a high-resolution medium-energy collimator to obtain images for 10 minutes with a resolution of 256×256.

O=c1[nH]c(=O)n([C@H]2C[C@H](O)[C@@H](CO)O2)cc1I [[I-125] IUR, 5-iododeoxyuridine, reference compound]
Incorporation, L-M (TK−) (L-M (TK-) cells): 27.86 ± 2.94 pmol/mg protein/h
accumulation in proliferating tissues (% ID/g) [1]: accumulated in large amounts particularly in the thymus
relative activity (C—N glycosidic bond cleavage) [2]: 1.00
Incorporation, L-M (L-M cells): 77.80 ± 7.45 pmol/mg protein/h
thymidine kinase-dependent incorporation into cells (L-M cells): incorporated in cells in a thymidine kinase dependent way
(L-M)/{L-M(TK-)} (L-M cells): 2.79*
Relative activity (C—N glycosidic linkage cleavage) [3]: 1.00

O=c1[nH]c(=O)n([C@@H]2O[C@H](CO)[C@@H](O)[C@@H]2F)cc1I [2′-fluoro-5-iodoarabinouridine]
stability in vivo [4]: high stability in vivo

O=c1[nH]c(=O)n([C@H]2C[C@H](O)[C@@H](CO)S2)cc1[125I] [[I-125] ITDU, [I-125]-5-iodo-4′-thio-2′-deoxyuridine]
Incorporation, L-M (TK−) (L-M (TK-) cells): 3.94 ± 0.63 pmol/mg protein/h
accumulation in proliferating tissues (% ID/g) [1]: accumulated in large amounts particularly in the thymus
5-iodouridine production rate [2]: 4075.9 ± 736.4 p mole/units/30 min
relative activity (C—N glycosidic bond cleavage) [2]: 0.03
metabolic stability of glycosidic bond compared with [I-125] IUR [2]: stabler than 5-iododeoxyuridine
Incorporation, L-M (L-M cells): 10.90 ± 1.48 pmol/mg protein/h
thymidine kinase-dependent incorporation into cells (L-M cells): incorporated in cells in a thymidine kinase dependent way
(L-M)/{L-M(TK-)} (L-M cells): 2.77*
accumulated radioactivity in proliferating tissues (thymus, small intestine) versus non-proliferating tissues (brain, liver, muscle) [5]: certainly higher than that in non-proliferating tissues
5-IU production rate [3]: 3778.7 ± 692.0 pmol/units/0.5 h
accumulated radioactivity in the thyroid gland (in vivo label stability) [6]: significantly smaller than that from the control [I-125] IUR
phosphorylation activity attributed to thymidine kinase (thymidine kinase): confirmed
Phosphorylated material production rate (thymidine kinase): 1182.7 ± 100.1 p mole/mg protein/h
accumulated radioactivity in the thyroid gland (in vivo label stability) [7]: significantly smaller than that from the control [I-125] IUR

O=c1[nH]c(=O)n([C@@H]2S[C@H](CO)[C@@H](O)[C@@H]2F)cc1[125I] [[I-125] FITAU, [I-125]-5-iodo-1-(2-deoxy-2-fluoro-4-thio-β-D-arabinopentofuranosyl)uracil]
Incorporation, L-M (TK−) (L-M (TK-) cells): 0.21 ± 0.05 pmol/mg protein/h
Incorporation, L-M (L-M cells): 0.34 ± 0.05 pmol/mg protein/h
thymidine kinase-dependent incorporation into cells (L-M cells): incorporated in cells in a thymidine kinase dependent way
(L-M)/{L-M(TK-)} (L-M cells): 1.62***
5-IU production rate [3]: 0.5 ± 0.1 pmol/units/0.5 h
Relative activity (C—N glycosidic linkage cleavage) [3]: <0.00001
metabolic stability of glycosidic bond compared with [I-125] IUR [3]: still stabler than [I-125] IUR
accumulated radioactivity in the thyroid gland (in vivo label stability) [6]: significantly smaller than that from the control [I-125] IUR

O=c1[nH]c(=O)n(C2S[C@H](CO)[C@@H](O)[C@@H]2O)cc1[125I] (stereo partly drawn) [[I-125] ITAU, [I-125]-5-iodo-1-(4-thio-D-arabinofuranosyl)uracil]
Incorporation, L-M (TK−) (L-M (TK-) cells): 1.20 ± 0.20 pmol/mg protein/h
5-iodouridine production rate [2]: 524.3 ± 373.8 p mole/units/30 min
relative activity (C—N glycosidic bond cleavage) [2]: < 0.01
metabolic stability of glycosidic bond compared with [I-125] IUR [2]: stabler than 5-iododeoxyuridine
Incorporation, L-M (L-M cells): 1.68 ± 0.28 pmol/mg protein/h
(L-M)/{L-M(TK-)} (L-M cells): 1.40**
5-IU production rate [3]: 514.8 ± 367.0 pmol/units/0.5 h
Relative activity (C—N glycosidic linkage cleavage) [3]: <0.01
accumulated radioactivity in the thyroid gland (in vivo label stability) [6]: significantly smaller than that from the control [I-125] IUR
phosphorylation activity attributed to thymidine kinase (thymidine kinase): confirmed
Phosphorylated material production rate (thymidine kinase): 13.6 ± 6.6 p mole/mg protein/h
accumulated radioactivity in the thyroid gland (in vivo label stability) [7]: significantly smaller than that from the control [I-125] IUR

O=c1[nH]c(=O)n([C@H]2C[C@H](O)[C@@H](CO)O2)cc1I [5-iodo-deoxyuridine]
stability in vivo [4]: decomposed rapidly in vivo

O=c1[nH]c(=O)n([C@H]2C[C@H](O)[C@@H](CO)S2)cc1[123I] [[I-123] ITDU, [I-123]-5-iodo-4′-thio-2′-deoxyuridine]
scintigraphic imaging of transplanted tumor (Walker tumor): clear imaging of transplanted tumors

Cn1c(=O)c([125I])cn([C@@H]2O[C@H](CO)[C@@H](O)[C@@H]2Br)c1=O [[I-125] IMBAU, [I-125]-5-iodo-1-methyl-(2-deoxy-2-bromo-β-D-arabinopentofuranosyl)uracil]
5-IU production rate [3]: 0.0 pmol/units/0.5 h
stability under heat treatment ([3]; boiling water bath for 3 minutes used to stop the reaction): unstable under heat treatment
Relative activity (C—N glycosidic linkage cleavage) [3]: 0.0
metabolic stability of glycosidic bond compared with [I-125] IUR [3]: still stabler than [I-125] IUR
accumulated radioactivity in the thyroid gland (in vivo label stability) [6]: significantly smaller than that from the control [I-125] IUR

Cc1cn([C@H]2C[C@H](F)[C@@H](CO)O2)c(=O)[nH]c1=O [3′-deoxy-3′-fluorothymidine]
stability in vivo [4]: high stability in vivo
